Laboratory results from US10738041B2, “Ferroportin inhibitors” (Vifor (International) AG, priority 2015, dated 2020).
Like-named read-outs stand apart in the source and are kept apart here.

Legend:
human Fpn-GFP fusion = target: T1, human Fpn-GFP fusion (Homo sapiens, UniProt Q9NP59); experiment: Ferroportin Internalization and Degradation Assay (FACS); assay type: cell-based
T1 construct: expressed in transfected cells; host or cells: HEK-293 cell line #354 (derivative of HEK-293 Tet-ON Advanced, Clontech)
T1 sequence (Q9NP59 1-571): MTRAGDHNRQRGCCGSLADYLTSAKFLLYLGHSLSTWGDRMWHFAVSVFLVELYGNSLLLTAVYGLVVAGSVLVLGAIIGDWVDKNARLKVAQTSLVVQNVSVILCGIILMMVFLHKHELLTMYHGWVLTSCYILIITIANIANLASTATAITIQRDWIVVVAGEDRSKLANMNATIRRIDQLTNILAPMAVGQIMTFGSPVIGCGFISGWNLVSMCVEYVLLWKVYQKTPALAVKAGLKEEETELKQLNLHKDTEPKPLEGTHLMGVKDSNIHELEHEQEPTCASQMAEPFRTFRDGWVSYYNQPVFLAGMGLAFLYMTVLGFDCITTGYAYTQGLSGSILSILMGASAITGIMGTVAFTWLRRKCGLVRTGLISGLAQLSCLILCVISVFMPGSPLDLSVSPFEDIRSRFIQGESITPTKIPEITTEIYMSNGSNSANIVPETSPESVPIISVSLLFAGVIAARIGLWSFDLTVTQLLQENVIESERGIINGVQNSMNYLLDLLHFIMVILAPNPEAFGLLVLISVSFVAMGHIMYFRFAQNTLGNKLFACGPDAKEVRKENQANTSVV
Protocol: Growing HEK-293 #354 cells in doxycycline containing media induced expression of human Fpn-GFP fusion protein on the cell surface. […] Small molecular weight Fpn inhibitor compounds were tested for dose-dependent effects on the Fpn-GFP mean fluorescence intensity (MFI) on HEK-293 cell line #354, as described below. HEK #354 cells were harvested from ca. 80% confluent cultures, seeded at 0.6×10^6 (cells/ml in DMEM/F12 GlutaMAX™ medium (Invitrogen, Cat. 31331-028) containing 10% FBS (Clontech, Cat. 631106), 1% Penicillin-Streptomycin (Invitrogen, Cat. 15140-122), 200 μg/ml Hygromycin B (Invitrogen, Cat. 10687-010), Blasticidin 5 μg/ml, (Invitrogen, Cat. R210-01), 4 μg/ml doxycycline (Clontech, Cat. 631311), 50 μl per well of 384 well plates (Greiner; Cat. 781091) and grown at 37° C. with 5% CQ. After overnight incubation, 10 μl/well of dilution series of the test compounds were added in quadruplicates and plates were further incubated overnight at 37° C. with 5% CO2. Cells were washed once with FACS buffer (PBS containing 1% FBS, 2 mM EDTA and 0.05% NaN3), harvested in FACS buffer with 0.5 μg/ml propidium iodide (Sigma, Cat. P4864) and analyzed in a flow cytometer (CANTO™ II, BD Biosciences) equipped with high throughput sampler. Live HEK #354 cells were gated as propidium iodide negative population and analyzed for expression of Fpn-GFP.

human Fpn = target: T2, human Fpn (Homo sapiens, UniProt Q9NP59); experiment: Biophysical Ferroportin-Hepcidin Binding Assay (fluorescence polarization)
T2 construct: FLAG (C); made in house; host or cells: Pichia pastoris
T2 sequence (Q9NP59 1-571): T1 sequence (Q9NP59 1-571)
Summary of the method: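 Purified human Fpn (C-terminal FLAG tag, expressed in Pichia pastoris) at 1 μM final was incubated with 20 nM TMR-hepcidin and serially diluted compounds in duplicate for 90 min at room temperature. Binding inhibition was read as a dose-dependent fall in FP (mP), calculated from parallel and perpendicular fluorescence.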

naïve WT C57BL/6 mice = experiment: Hypoferremia in naïve mice; assay type: in vivo, mouse; details: for inhibition in vivo at 10 mg/kg / inhibition in vivo at 30 mg/kg / inhibition in vivo at 100 mg/kg: Mus musculus, po, 3 h, naïve WT C57BL/6 mice, relative to vehicle, read-out: Serum Iron Reduction at 3 h (%); for inhibition in vivo at 10 mg/kg: Dose 10 mg/kg p.o.; for inhibition in vivo at 30 mg/kg: Dose 30 mg/kg p.o.; for inhibition in vivo at 100 mg/kg: Dose 100 mg/kg p.o.
Protocol: Female C57BL/6 mice (Janvier, France) at age of 9 weeks were fed a standard diet (Harlan Provimi Kliba 3436) and treated per os (p.o.) with compounds or the corresponding amount of vehicle at a volume of 10 ml/kg body weight. Fpn inhibitors were formulated in 0.5% methylcellulose/water or 20% cremophor EL/water and dosed p.o. in mice at 10, 30 or 100 mg/kg body weight. Three hours later, mice were pre terminally anesthetized in isoflurane chambers and blood was collected by retro-orbital bleeding. Mice were sacrificed by cervical dislocation and spleens, livers and duodena were harvested and used for biomarker analysis. All experiments have been conducted in compliance with the license approved by the responsible veterinarian authorities. Serum was isolated by centrifugation of blood into gel-containing microtainers and serum iron was determined by the MULTIGENT Iron assay (Abbott Diagnostics, 6K95). Eight mice per group were used and one-way ANOVA with Bonferroni's multiple comparison test was performed to analyze the statistical differences between the experimental groups.

[1] = average of multiple measurements; Fpn-GFP MFI, HEK-293 cell line #354, FACS
[2] = average of multiple measurements, 1 μM human Fpn, 20 nM TMR-hepcidin, read-out: FP IC50
[3] = injection of synthetic hepcidin in WT naïve mice (Rivera, 2005; FIG. 3A)
[4] = average of multiple measurements; Fpn-GFP MFI, HEK-293 cell line #354, FACS; read-out: EC50 ferroportin internalization and degradation

Structure (SMILES)	EC50 (human Fpn-GFP fusion; [1]) [nM]	IC50 (human Fpn; [2]) [nM]	inhibition in vivo at 10 mg/kg (naïve WT C57BL/6 mice) [%]	inhibition in vivo at 30 mg/kg (naïve WT C57BL/6 mice) [%]	inhibition in vivo at 100 mg/kg (naïve WT C57BL/6 mice) [%]	other results
O=C(NCc1ncccc1F)c1cnn(CCNCCc2nc3ccccc3[nH]2)c1 [Example 111]	75	51				
O=C(NCc1ncccc1F)c1csc(CCNCCc2nc3cc(F)ccc3[nH]2)n1 [Example 120]	530	71				
O=C(NCc1ccccn1)c1csc(CCNCc2nc3ccccc3[nH]2)n1 [Example 12]		860	15	20	45	
O=C(NCc1ncccc1F)c1coc(CCNCCc2nc3cc(F)ccc3[nH]2)n1 [Example 250]	600	19	5	18	40	
O=C(NCc1ncccc1F)c1csc(CCN(CCc2nc3ccccc3[nH]2)CCc2nc3ccccc3[nH]2)n1 [Example 152]	71	23				
O=C(NCc1ncccc1F)c1csc(CNCCc2nc3ccccc3[nH]2)n1 [Example 118]	4910	250	8	24	49	
O=C(NCc1ccccn1)c1coc(CCNCc2nc3ccccc3[nH]2)n1 [Example 137]	11100	1040	-2	14	25	
O=C(NCc1ncccc1F)c1ncn(CCNCc2nc3ccccc3[nH]2)n1 [Example 169]	4120	540				
O=C(NCc1cccnn1)c1nc(CCNCc2nc3ccccc3[nH]2)sc1Cl [Example 161]	5300	260				
CC[C@H](C)[C@@H]1NC(=O)[C@@H](NC(=O)[C@@H](NC(=O)[C@@H]2CCCN2C(=O)[C@H](Cc2ccccc2)NC(=O)[C@H](Cc2c[nH]cn2)NC(=O)[C@@H](NC(=O)[C@@H](N)CC(=O)O)[C@@H](C)O)[C@@H](C)CC)CSSC[C@@H](C(=O)N[C@@H](CCCCN)C(=O)N[C@H](C(=O)O)[C@@H](C)O)NC(=O)[C@@H]2CSSC[C@@H]3NC(=O)[C@@H]4CSSC[C@H](NC(=O)[C@H](Cc5ccccc5)NC1=O)C(=O)N[C@@H](CSSC[C@H](NC(=O)[C@H](CCCCN)NC(=O)[C@H](CO)NC(=O)[C@H](CCCNC(=N)N)NC(=O)[C@H](Cc1c[nH]cn1)NC3=O)C(=O)NCC(=O)N[C@@H](CCSC)C(=O)N2)C(=O)NCC(=O)N4 [hepcidin, reference compound]						DC50 (human Fpn-GFP fusion; read-out: EC50 ferroportin internalization and degradation; average of multiple measurements; Fpn-GFP MFI, HEK-293 cell line #354, FACS): 4 ± 2 nM; IC50 (human Fpn): 370 ± 67 nM; reduction of serum iron levels from the vehicle control (naïve WT C57BL/6 mice; [3]): 40-50%; time of maximal effect on serum iron post treatment (naïve WT C57BL/6 mice; [3]): 3 to 4 h
O=C(NCc1ncccc1F)c1coc(CCNCCc2nc3c(F)cc(F)cc3[nH]2)n1 [Example 249]	950	44				
O=C(NCc1ncccc1Cl)c1csc(CCNCc2nc3ccccc3[nH]2)n1 [Example 82]	689	374				
O=C(NC1CCc2cccnc21)c1csc(CCNCCc2nc3ccccc3[nH]2)n1 (centres unmarked) [Example 158]	325	41				
O=C(NCc1cccnn1)c1csc(CCNCCc2nc3ccccc3[nH]2)n1 [Example 122]	3020	214				
O=C(NC1CCc2cccnc21)c1csc(CCNCc2nc3ccccc3[nH]2)n1 (centres unmarked) [Example 39]		1340	10	20	35	
O=C(NCc1ncccc1F)c1nc(CCNCCc2nc3ccccc3[nH]2)sc1Cl [Example 154]	130	30	13	35	56	

Structure (SMILES)	EC50 (human Fpn-GFP fusion; [1]) [nM]	IC50 (human Fpn; [2]) [nM]	inhibition in vivo at 10 mg/kg (naïve WT C57BL/6 mice) [%]	inhibition in vivo at 30 mg/kg (naïve WT C57BL/6 mice) [%]	inhibition in vivo at 100 mg/kg (naïve WT C57BL/6 mice) [%]	other results
O=C(NCc1ncccc1F)c1coc(CCNCc2nc3ccccc3[nH]2)n1 [Example 126]	757	120	7	23	62	
O=C(NCc1ncc(F)cc1F)c1csc(CCNCCc2nc3ccccc3[nH]2)n1 [Example 116]	590	58				
O=C(NCc1ncccc1F)c1coc(C2CN(CCc3nc4ccccc4[nH]3)C2)n1 [Example 208]	150	19	50	65	73	
O=C(NCc1ncccc1F)c1nc(CCNCc2nc3ccccc3[nH]2)sc1Cl [Example 151]	523	89				
O=C(NCc1ncccc1F)c1csc(CCCNCc2nc3ccccc3[nH]2)n1 [Example 134]	5190	970				
O=C(NCc1ncccc1Cl)c1cnn(CCNCc2nc3ccccc3[nH]2)c1 [Example 138]	678	160				
O=C(NCc1ncccc1F)c1cncc(C2CN(CCc3nc4ccccc4[nH]3)C2)c1 [compound 237]		66	0	15	27	
O=C(NCc1ncccc1Cl)c1coc(CCNCc2nc3ccccc3[nH]2)n1 [Example 141]	290	49				
O=C(NCc1ncccc1F)c1ncn(CCNCCc2nc3ccccc3[nH]2)n1 [Example 181]	930	89				
O=C(NCc1ncccc1F)c1csc(CCNCCc2nc3c(F)cccc3[nH]2)n1 [Example 243]	510	34				
O=C(NCc1ncccc1F)c1cccc(CNCCc2nc3ccccc3[nH]2)c1 [Example 224]		201				DC50 (human Fpn-GFP fusion; [4]): 1830 nM
O=C(NCc1ncccc1F)c1csc(CCNCC(F)(F)c2nc3ccccc3[nH]2)n1 [Example 196]		870				DC50 (human Fpn-GFP fusion; [4]): 24800 nM
Cc1oc(CCNCCc2nc3ccccc3[nH]2)nc1C(=O)NCc1ncccc1F [Example 230]	950	58				
O=C(NCc1ncccc1Cl)c1cnn(CCNCCc2nc3ccccc3[nH]2)c1 [Example 144]	43	73				
Cc1cnccc1CNC(=O)c1csc(CCNCc2nc3ccccc3[nH]2)n1 [Example 90]		418	0	0	40	
O=C(NCc1ncccc1F)c1coc(CCNCCc2nc3c(Cl)cccc3[nH]2)n1 [Example 226]	490	26				
